Source: PubChem BioAssay (NCI)
Where “and” joins values, the source holds several entries; their conditions need not be identical. Equal entries are not always repeated.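 Step 1: Grow cells in 96-well plates. Step 2: Expose to compound for 48 hours at 5 concentrations. Step 3: Interpolate endpoints linearly; if unreached, use highest concentration. GI50 = concentration required for 50% inhibition of growth. At the TGI there is no net growth.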

How the values were obtained:
Assay in all cases: inhibition of tumour cell growth, NCI panel, 48 h
HOP-92 NSCLC = tested on: HOP-92 NSCLC
HCT-116 colon = tested on: HCT-116 colon
SK-MEL-28 melanoma = tested on: SK-MEL-28 melanoma
786-0 renal = tested on: 786-0 renal
T-47D breast = tested on: T-47D breast
UACC-62 melanoma = tested on: UACC-62 melanoma
NCI-H522 lung = tested on: NCI-H522 lung
MDA-MB-435 = tested on: MDA-MB-435
PC-3 prostate = tested on: PC-3 prostate
SW-620 colon = tested on: SW-620 colon

Structure (SMILES) | GI50 (HOP-92 NSCLC) | TGI (HOP-92 NSCLC) | GI50 (HCT-116 colon) | TGI (HCT-116 colon) | GI50 (SK-MEL-28 melanoma) | TGI (SK-MEL-28 melanoma) | GI50 (786-0 renal) | TGI (786-0 renal) | GI50 (T-47D breast) | TGI (T-47D breast) | GI50 (UACC-62 melanoma) | TGI (UACC-62 melanoma) | GI50 (NCI-H522 lung) | TGI (NCI-H522 lung) | GI50 (MDA-MB-435) | TGI (MDA-MB-435) | GI50 (PC-3 prostate) | TGI (PC-3 prostate) | GI50 (SW-620 colon) | TGI (SW-620 colon)
CCOc1cccc(/C=N/NC(=O)c2cccc(Nc3ccnc(C(F)(F)F)c3)c2)c1O | 5.21 µM | > 100 µM | 0.477 µM | > 69.4 µM | 2.31 µM | 36.6 µM | 1.18 µM | > 20.7 µM | 0.814 µM | 19 µM | 0.551 µM | 11.7 µM | 4.54 µM | 32.5 µM | 3.1 µM | > 51.2 µM | 3.28 µM | > 92.8 µM | 3.04 µM | > 88.7 µM
O=C(NC(=O)c1c(F)cccc1F)Nc1cccc(Oc2ncc(Cl)cn2)c1 | – | 70.9 µM | – | > 100 µM | – | > 100 µM | – | > 100 µM | – | > 100 µM | – | > 100 µM | – | > 100 µM | – | > 22.8 µM | – | > 100 µM | – | > 100 µM
CCOc1cc(C(C)(C)C)ccc1C1=N[C@H](c2ccc(Cl)cc2)[C@H](c2ccc(Cl)cc2)N1C(=O)N1CCN(CC#Cc2cccc3c2CN([C@@H]2CCC(=O)NC2=O)C3=O)CC1 | 0.0372 µM | 8.51 µM | 1.97 µM | > 36.3 µM | 3.29 µM | > 100 µM | 1.32 µM | 42.8 µM | 0.0431 µM | 12.9 µM | 0.673 µM | 14.7 µM | 6.59 µM | > 77.3 µM | 2.75 µM | > 53.8 µM | 0.085 µM | 18.4 µM | 0.143 µM | > 100 µM
COc1ccc2c(c1)NC1=C(C(=O)OC1)C2c1cc(OC)c(OC)c(OC)c1 (stereo not drawn) | < 0.0112 µM | > 100 µM | < 0.01 µM | > 100 µM | – | > 100 µM | < 0.01 µM | > 100 µM | 25.6 µM | > 100 µM | < 0.01 µM | > 100 µM | < 0.01 µM | < 0.01 µM | < 0.01 µM | < 0.0164 µM | < 0.01 µM | > 100 µM | < 0.01 µM | > 100 µM
C=C(C)[C@@H]1CC[C@]2(COCCCN)CC[C@]3(C)[C@H](CC[C@@H]4[C@@](C)(CCCNCCCN)[C@H](C(=C)C)CC[C@]43C)[C@@H]12 | 1.36 µM | 2.84 µM | 1.45 µM | 2.84 µM | 1.72 µM | 3.14 µM | 1.56 µM | 2.96 µM | 1.78 µM | 3.63 µM | 1.71 µM | 3.22 µM | 1.88 µM | 3.78 µM | 1.84 µM | 3.41 µM | 1.7 µM | 3.25 µM | 1.84 µM | 3.79 µM
Cc1cn(C2CC(OC(=O)c3ccc(Cl)cc3)C(COC(=O)c3ccc(Cl)cc3)O2)c(=O)[nH]c1=O (stereo not drawn) | – | > 100 µM | – | > 100 µM | – | > 100 µM | – | > 100 µM | – | > 100 µM | – | > 100 µM | – | > 100 µM | – | > 100 µM | – | > 100 µM | – | > 100 µM
N[C@H](C(=O)O)[C@@H]1CC(Cl)=NO1 | – | 541 µM | 3.71 µM | > 1000 µM | 28.9 µM | > 1000 µM | – | > 1000 µM | – | > 1000 µM | 35.1 µM | 401 µM | – | 271 µM | 25.3 µM | > 645 µM | 11.5 µM | > 1000 µM | 7.48 µM | > 1000 µM
CCCCCCCCCCCCCCCCCCOC[C@H](COP(=O)(O)O[C@H]1[C@H](O)[C@@H](O)[C@H](O)C[C@H]1O)OC | 29.4 µM and 12.3 µM | > 100 µM and 25.3 µM | > 100 µM and 15.8 µM | > 100 µM and 30.7 µM | – | > 100 µM and 33.8 µM | > 100 µM and 15.9 µM | > 100 µM and 57.8 µM | > 100 µM and 16.9 µM | > 100 µM and 37.4 µM | > 100 µM and 16.4 µM | > 100 µM and 30.1 µM | 36.5 µM and 11.4 µM | > 100 µM and 25.4 µM | 65.9 µM and 11.8 µM | > 100 µM and 43.8 µM | 7.44 µM and 2.94 µM | 43.3 µM and 14.1 µM | – | > 100 µM and 39.3 µM
CN(C)C/C=C/C(=O)Nc1ccc(C(=O)N[C@@]2(C)CCC[C@@H](Nc3ncc(Cl)c(-c4c[nH]c5ccccc45)n3)C2)nc1 | < 0.0109 µM | 0.041 µM | < 0.01 µM | 0.124 µM | < 0.01 µM | 0.118 µM | < 0.0146 µM | 0.236 µM | 0.0218 µM | 0.565 µM | < 0.01 µM | 0.0728 µM | 0.0178 µM | 0.0664 µM | 0.0108 µM | 0.112 µM | < 0.01 µM | 0.0833 µM | < 0.0106 µM | 0.36 µM
CN(C)CCC(=O)N1C/C(=C\c2ccc(Cl)c(Cl)c2)C(=O)/C(=C/c2ccc(Cl)c(Cl)c2)C1 | – | 0.977 µM | – | 0.331 µM | – | 1.82 µM | – | 0.323 µM | – | 2.48 µM | – | 1.72 µM | – | 0.455 µM | – | 1.6 µM | – | 0.398 µM | – | 0.349 µM
COc1ccc(C(C#N)NC23CC4CC(CC(C4)C2)C3)cc1 (stereo not drawn) | – | > 100 µM | – | > 100 µM | – | > 100 µM | – | > 100 µM | – | > 100 µM | – | > 100 µM | – | > 100 µM | – | > 100 µM | – | > 100 µM | – | > 100 µM
C=CC(=O)N1CCC(Oc2cc3c(Nc4ccc(Cl)c(Cl)c4F)ncnc3cc2OC)CC1 | 0.944 µM and 0.338 µM | 5.59 µM and 3.07 µM | 5.28 µM and 3.72 µM | 18.9 µM and > 10 µM | 11.6 µM and > 9.46 µM | 25.8 µM and > 10 µM | 1.96 µM and 1.63 µM | 17.7 µM and > 10 µM | < 0.01 µM and 0.0178 µM | 25.9 µM and > 10 µM | 3.25 µM and 2.15 µM | 18.7 µM and > 10 µM | < 0.01 µM and 0.00141 µM | 4.19 µM and 0.782 µM | 2.23 µM and 1.8 µM | 8.3 µM and 4.7 µM | 7.66 µM and 2.95 µM | 24.5 µM and > 10 µM | 10.3 µM and 4.24 µM | 34.2 µM and > 10 µM
O=C(O)CSCCc1ccccc1 | – | > 100 µM | – | > 100 µM | – | > 100 µM | – | > 100 µM | – | > 100 µM | – | > 100 µM | – | > 100 µM | – | > 100 µM | – | > 100 µM | – | > 100 µM
Nc1n[nH]c2cccc(C#Cc3cccc(NC(=O)c4cccc(C(F)(F)F)c4)c3)c12 | 1.9 µM | 5.24 µM | 0.855 µM | 4.61 µM | 2.72 µM | 12.5 µM | 3.03 µM | 8.74 µM | 1.81 µM | 8.1 µM | 2.54 µM | 11.4 µM | 4.42 µM | 18.1 µM | 3.04 µM | 13.7 µM | 3.96 µM | 14.6 µM | 3.22 µM | 19.5 µM
CC(C)(C)c1cc([N+](=O)[O-])cc([N+](=O)[O-])c1O | – | > 10 µM | – | > 10 µM | – | > 10 µM | – | > 10 µM | – | > 10 µM | – | > 10 µM | – | > 10 µM | – | > 10 µM | – | > 10 µM | – | > 10 µM
